These results are taken from ChEMBL document CHEMBL1201862, “PubChem BioAssay data set” (2004).

The structures appear in SMILES notation.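 A five-concentration, 48-hour dose response in 96-well plates underlies each endpoint, interpolated linearly between surrounding concentrations. Abbreviation: GI50, concentration required for 50% inhibition of growth.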 Calls of active or inactive are those of the source. Cut-off read from the data, not from the text of the source: active = GI50 up to about 1.1 µM and inactive = higher. A value given as a limit tells only on which side of the number the result lay.

Among the test systems are MDA-N; LOX IMVI; M14; UACC-62; SNB-75; 786-0; T47D; SN12C; UO-31; SK-OV-3; ACHN; SW-620; SK-MEL-2; NCI-H226; OVCAR-5; HOP-92; COLO 205; HCT-116; SR.
What all share (test): growth of human tumour cells (NCI), 48 h

Regarding `CC1(C)SC2C(C(=O)O)N=C(Cc3ccccc3)N2C1C(=O)O` (centres undefined), the GI50 is 49 µM (inactive) with MDA-N; 25.5 µM (inactive) with LOX IMVI; 37.2 µM (inactive) in the experiment with M14; > 100 µM (inactive) with UACC-62; 19.6 µM (inactive) in the experiment on SNB-75; 19.8 µM (inactive) in the experiment on 786-0. The GI50 was 24.4 µM (inactive) with T47D; 35 µM (inactive) with SN12C; 19.4 µM (inactive) with UO-31; 41.2 µM (inactive) in the experiment with SK-OV-3; 38.9 µM (inactive) with ACHN; 60.3 µM (inactive) in the experiment with SW-620. Further, the GI50 in the experiment on SK-MEL-2 is > 100 µM (inactive); in the experiment on NCI-H226, 29.8 µM (inactive); in the experiment with OVCAR-5, 36.8 µM (inactive); with HOP-92, 42.8 µM (inactive); in the experiment with COLO 205 it was > 100 µM (inactive); with HCT-116 it was 24.9 µM (inactive). The GI50 in the experiment with SR was 33.9 µM (inactive).

Regarding `S=C(N/N=C/c1ccccn1)Nc1ccc(Cl)cc1`, the GI50 in the experiment with MDA-N is 0.933 µM (active); in the experiment with LOX IMVI, 0.06 µM (active); in the experiment on M14 it was 0.0347 µM (active); with UACC-62, 0.114 µM (active); in the experiment on SNB-75, 0.236 µM (active); in the experiment with 786-0 it was 0.0601 µM (active). Further, the GI50 with T47D was 0.0169 µM (active); in the experiment with SN12C, 0.32 µM (active); in the experiment on UO-31, 0.0514 µM (active); in the experiment with SK-OV-3, 0.0378 µM (active); with ACHN, 0.0455 µM (active); in the experiment with SW-620, 0.0528 µM (active). Besides, the GI50 was 2.14 µM (inactive) with SK-MEL-2; 0.0845 µM (active) in the experiment on NCI-H226; 0.191 µM (active) in the experiment on OVCAR-5; 0.282 µM (active) in the experiment with HOP-92; < 0.0175 µM (active) in the experiment with COLO 205; 0.0449 µM (active) in the experiment on HCT-116. The GI50 in the experiment on SR is < 0.0218 µM (active).

For `CC(C)(C)OC(=O)NCC(c1c[nH]c2cc(Br)ccc12)c1c[nH]c2cc(Br)ccc12`, the GI50 with MDA-N is 18.5 µM (inactive); with LOX IMVI, 17.5 µM (inactive); in the experiment on M14, 18.7 µM (inactive); with UACC-62 it was 16 µM (inactive); with SNB-75, 21.9 µM (inactive); with 786-0 it was 18.6 µM (inactive). In addition, the GI50 in the experiment on T47D was 17.6 µM (inactive); with SN12C, 18.5 µM (inactive); in the experiment with UO-31, 17.5 µM (inactive); with SK-OV-3 it was 15.8 µM (inactive); in the experiment on ACHN, 16.7 µM (inactive); with SW-620, 28.9 µM (inactive). Also, the GI50 in the experiment on SK-MEL-2 was 18.4 µM (inactive); with NCI-H226, 15.4 µM (inactive); in the experiment on OVCAR-5, 15.5 µM (inactive); in the experiment with HOP-92 it was 14.9 µM (inactive); in the experiment on COLO 205, 15.6 µM (inactive); with HCT-116 it was 17 µM (inactive). Moreover, the GI50 in the experiment on SR was > 100 µM (inactive).

Take `Cc1cc(Cl)nc2nc(Cl)c(N)cc12`: the GI50 with MDA-N is 1.88 µM (inactive); in the experiment on LOX IMVI, 1.91 µM (inactive); with M14 it was 8.67 µM (inactive); in the experiment on UACC-62, 2.37 µM (inactive); in the experiment on SNB-75 it was 10.6 µM (inactive); in the experiment with 786-0 it was 2.86 µM (inactive). Besides, the GI50 in the experiment with T47D was 3.21 µM (inactive); in the experiment with SN12C it was 1.9 µM (inactive); in the experiment on UO-31, 3.92 µM (inactive); with SK-OV-3, 21.3 µM (inactive); in the experiment on ACHN it was 5.38 µM (inactive); in the experiment on SW-620, 2.04 µM (inactive). Besides, the GI50 in the experiment with SK-MEL-2 was 14.9 µM (inactive); in the experiment on NCI-H226, 21.5 µM (inactive); in the experiment with OVCAR-5, 17 µM (inactive); in the experiment on HOP-92, 2.18 µM (inactive); in the experiment with COLO 205 it was 2.06 µM (inactive); with HCT-116, 2.48 µM (inactive). Moreover, the GI50 in the experiment on SR is 2.88 µM (inactive).

Take `CC1CNC(c2ccc(-c3nc(-c4ccc(C5=NC(C)CN5)cc4)nc(N(C)C)n3)cc2)=N1` (centres undefined): the GI50 with MDA-N is 1.85 µM (inactive); in the experiment with LOX IMVI, 1.41 µM (inactive); in the experiment with M14, 3.21 µM (inactive); in the experiment with UACC-62, 1.73 µM (inactive); in the experiment on SNB-75, 1.82 µM (inactive); in the experiment on 786-0 it was 1.28 µM (inactive). For the same molecule, the GI50 in the experiment on T47D is 2.71 µM (inactive); with SN12C it was 1.47 µM (inactive); in the experiment with UO-31 it was 7.33 µM (inactive); in the experiment with SK-OV-3, 1.91 µM (inactive); with ACHN, 3.01 µM (inactive); with SW-620, 1.17 µM (inactive). For the same molecule, the GI50 in the experiment on SK-MEL-2 is 2.01 µM (inactive); in the experiment with NCI-H226 it was 2.02 µM (inactive); with OVCAR-5, 3.24 µM (inactive); with HOP-92 it was 3.14 µM (inactive); with COLO 205, 1.1 µM (active); with HCT-116, 0.964 µM (active). For the same molecule, the GI50 in the experiment on SR is 0.653 µM (active).

For `COCCOC1=C(Cl)C(=O)c2c(O)ccc(O)c2C1=O`, the GI50 is 1.34 µM (inactive) in the experiment on MDA-N; 1.16 µM (inactive) in the experiment on LOX IMVI; 1.71 µM (inactive) in the experiment on M14; 4.81 µM (inactive) with UACC-62; 5.55 µM (inactive) in the experiment with SNB-75; 1.62 µM (inactive) in the experiment on 786-0. The GI50 was 2.47 µM (inactive) with T47D; 1.92 µM (inactive) with SN12C; 1.71 µM (inactive) with UO-31; 16.8 µM (inactive) in the experiment with SK-OV-3; 1.11 µM (active) in the experiment on ACHN; 0.444 µM (active) in the experiment with SW-620. The GI50 in the experiment on SK-MEL-2 was 5.98 µM (inactive); in the experiment with NCI-H226 it was 12.1 µM (inactive); in the experiment on OVCAR-5, 6.93 µM (inactive); in the experiment with HOP-92, 0.726 µM (active); with COLO 205 it was 0.838 µM (active); in the experiment on HCT-116, 0.979 µM (active). For the same molecule, in the experiment with SR, the GI50 was 0.78 µM (active).

Consider `CN1CCN2CCN(C)CCN(CC1)CC2`, for which the GI50 in the experiment with MDA-N, in the experiment with LOX IMVI, with M14, in the experiment with UACC-62, in the experiment on SNB-75 and in the experiment with 786-0 was > 100 µM (inactive) in each case. For the same molecule, the GI50 with T47D, in the experiment on SN12C, in the experiment with UO-31, in the experiment on SK-OV-3, in the experiment with ACHN and in the experiment with SW-620 was > 100 µM (inactive) each time. The GI50 in the experiment on SK-MEL-2, in the experiment on NCI-H226, in the experiment with OVCAR-5, in the experiment with HOP-92, in the experiment with COLO 205 and in the experiment on HCT-116 was > 100 µM (inactive) throughout. Also, in the experiment with SR, the GI50 was > 100 µM (inactive).

Consider `c1ccc(N/N=C2\CC(c3ccccc3)Oc3ccccc32)cc1` (centres undefined), for which the GI50 with MDA-N was 31.5 µM (inactive); with LOX IMVI, 34.2 µM (inactive); in the experiment with M14, 42.6 µM (inactive); in the experiment with UACC-62, 40.6 µM (inactive); with SNB-75, 22.9 µM (inactive); in the experiment with 786-0 it was 24.3 µM (inactive). For the same molecule, the GI50 with T47D was 26.4 µM (inactive); with SN12C it was 36.2 µM (inactive); with UO-31, 22.1 µM (inactive); in the experiment on SK-OV-3 it was > 100 µM (inactive); in the experiment on ACHN, 43.5 µM (inactive); in the experiment with SW-620, 30.5 µM (inactive). Further, the GI50 in the experiment with SK-MEL-2 was 65.3 µM (inactive); in the experiment on NCI-H226 it was > 100 µM (inactive); with OVCAR-5, 46.1 µM (inactive); with HOP-92 it was 39.1 µM (inactive); with COLO 205, 67.8 µM (inactive); in the experiment on HCT-116, 32.1 µM (inactive). In addition, the GI50 in the experiment with SR is 42.1 µM (inactive).

For `CC(=O)OCC(OC(C)=O)C(OC(C)=O)C(/C=N\Nc1nc2ccccc2c(=O)[nH]1)=N\Nc1nc2ccccc2c(=O)[nH]1` (centres undefined), the GI50 with MDA-N, in the experiment with LOX IMVI, in the experiment on M14, with UACC-62, in the experiment on SNB-75 and in the experiment with 786-0 was > 100 µM (inactive) throughout. In addition, the GI50 is 47 µM (inactive) in the experiment with T47D; > 100 µM (inactive) with SN12C; > 100 µM (inactive) with UO-31; > 100 µM (inactive) in the experiment with SK-OV-3; > 100 µM (inactive) with ACHN; > 100 µM (inactive) in the experiment on SW-620. Besides, the GI50 in the experiment on SK-MEL-2, in the experiment with NCI-H226, in the experiment on OVCAR-5, with HOP-92, in the experiment on COLO 205 and with HCT-116 was > 100 µM (inactive) throughout. Also, in the experiment with SR, the GI50 was 63.8 µM (inactive).

As to `C#Cc1nc(N)c2ncn(C3OC(COS(N)(=O)=O)C(O)C3O)c2n1` (centres undefined), the GI50 in the experiment on MDA-N is < 0.0168 µM (active); in the experiment with LOX IMVI it was < 0.0176 µM (active); in the experiment on M14, < 0.0426 µM (active); in the experiment with UACC-62 it was 0.0537 µM (active); in the experiment on SNB-75, 0.02 µM (active); with 786-0, 0.0367 µM (active). Moreover, the GI50 in the experiment on T47D was < 0.01 µM (active); in the experiment on SN12C it was 0.0172 µM (active); with UO-31 it was < 0.0187 µM (active); in the experiment with SK-OV-3 it was < 0.01 µM (active); with ACHN it was < 0.0146 µM (active); in the experiment on SW-620, < 0.0248 µM (active). Besides, the GI50 with SK-MEL-2 is 0.0101 µM (active); in the experiment on NCI-H226, 0.0158 µM (active); in the experiment with OVCAR-5 it was < 0.0148 µM (active); in the experiment on HOP-92, < 0.01 µM (active); with COLO 205, 0.0277 µM (active); in the experiment on HCT-116, 0.0184 µM (active). Besides, the GI50 with SR was < 0.01 µM (active).

Turning to `N#Cc1c2ccc([N+](=O)[O-])cc2c(=O)n2c1[nH]c1ccc(C(F)(F)F)cc12`, the GI50 in the experiment on MDA-N was > 64.9 µM (inactive); with LOX IMVI, 6.56 µM (inactive); in the experiment on M14, 24.5 µM (inactive); in the experiment on UACC-62 it was 42.7 µM (inactive); in the experiment with SNB-75 it was 27.3 µM (inactive); in the experiment on 786-0, 40.6 µM (inactive). Besides, the GI50 is 32.4 µM (inactive) in the experiment on T47D; > 42.4 µM (inactive) in the experiment with SN12C; 17.5 µM (inactive) in the experiment on UO-31; 41.9 µM (inactive) in the experiment on SK-OV-3; 48 µM (inactive) in the experiment with ACHN; 14.4 µM (inactive) in the experiment with SW-620. Besides, the GI50 in the experiment on SK-MEL-2 was > 64.7 µM (inactive); with NCI-H226, 14.3 µM (inactive); in the experiment with OVCAR-5 it was 14.3 µM (inactive); in the experiment with HOP-92 it was 12.9 µM (inactive); with COLO 205, 16.9 µM (inactive); in the experiment with HCT-116 it was 10.1 µM (inactive). Further, the GI50 in the experiment on SR is 4.07 µM (inactive).
